Measured values published in ChEMBL document CHEMBL1201862, “PubChem BioAssay data set” (2004).
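Dose response: 5 concentrations. Exposure: 48 h. Format: 96-well plates. Endpoint: linear interpolation; highest concentration if not reached. GI50 is the concentration that inhibits growth by half.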 The source made the active and inactive calls. Cut-off read from the data, not from the text of the source: active = GI50 up to about 1.1 µM and inactive = higher.

Tests used:
Assay in all cases: NCI anticancer screen, dose series, 48 h
A549 = system: A549
ACHN = system: ACHN
CAKI-1 = system: CAKI-1
DMS-114 = system: DMS-114
HOP-62 = system: HOP-62
HT-29 = system: HT-29
IGROV-1 = system: IGROV-1
MOLT-4 = system: MOLT-4
NCI-H460 = system: NCI-H460
OVCAR-8 = system: OVCAR-8
RPMI-8226 = system: RPMI-8226
RXF 393 = system: RXF 393
SF-539 = system: SF-539
SK-MEL-5 = system: SK-MEL-5
SN12C = system: SN12C
SW-620 = system: SW-620
U-251 = system: U-251
HOP-92 = system: HOP-92
Hs-578T = system: Hs-578T
SR = system: SR

| Compound | GI50 (A549) | GI50 (ACHN) | GI50 (CAKI-1) | GI50 (DMS-114) | GI50 (HOP-62) | GI50 (HT-29) | GI50 (IGROV-1) | GI50 (MOLT-4) | GI50 (NCI-H460) | GI50 (OVCAR-8) | GI50 (RPMI-8226) | GI50 (RXF 393) | GI50 (SF-539) | GI50 (SK-MEL-5) | GI50 (SN12C) | GI50 (SW-620) | GI50 (U-251) | GI50 (HOP-92) | GI50 (Hs-578T) | GI50 (SR) |
| --- | --- | --- | --- | --- | --- | --- | --- | --- | --- | --- | --- | --- | --- | --- | --- | --- | --- | --- | --- | --- |
| C/C(=N\NC(=O)CC(=O)N(C(=O)c1ccc(Cl)cc1)c1ccc(C)cc1)c1ccccc1O | 35.6 µM (inactive) | 45.6 µM (inactive) | 64 µM (inactive) | 97.1 µM (inactive) | 37 µM (inactive) | 48.1 µM (inactive) | > 100 µM (inactive) | 5.79 µM (inactive) | 21.4 µM (inactive) | 18.7 µM (inactive) | > 100 µM (inactive) | 18.3 µM (inactive) | 43.4 µM (inactive) | > 100 µM (inactive) | > 100 µM (inactive) | > 100 µM (inactive) | 19.6 µM (inactive) |  |  |  |
| Cn1c(=O)c(C(=O)NC(=O)OCc2ccccc2)cn(CCSCCOC(=O)NCCCCCCNC(=O)OCCSCCn2cc(C(=O)NC(=O)OCc3ccccc3)c(=O)n(C)c2=O)c1=O | > 100 µM (inactive) | > 100 µM (inactive) |  | 78 µM (inactive) | 36.7 µM (inactive) |  | > 100 µM (inactive) | > 100 µM (inactive) | > 100 µM (inactive) | > 100 µM (inactive) | > 100 µM (inactive) | 33.7 µM (inactive) | 32.5 µM (inactive) | > 100 µM (inactive) | > 100 µM (inactive) | > 100 µM (inactive) | 63.4 µM (inactive) | 23.2 µM (inactive) |  |  |
| Cc1cc2oc(C)c(S(=O)(=O)NC(=O)Nc3ccc(Cl)cc3)c(=O)c2c(=O)o1 | > 100 µM (inactive) | 59.4 µM (inactive) | > 100 µM (inactive) |  | > 100 µM (inactive) | > 100 µM (inactive) | > 100 µM (inactive) | > 100 µM (inactive) | > 100 µM (inactive) | > 100 µM (inactive) | > 100 µM (inactive) | > 100 µM (inactive) | > 100 µM (inactive) | > 100 µM (inactive) | > 100 µM (inactive) | > 100 µM (inactive) | > 100 µM (inactive) | > 100 µM (inactive) | > 100 µM (inactive) | > 100 µM (inactive) |
| COC(=O)c1ccc([N+](=O)[O-])c(O)c1 | > 100 µM (inactive) | > 100 µM (inactive) | > 100 µM (inactive) |  | > 100 µM (inactive) | > 100 µM (inactive) | > 100 µM (inactive) | > 100 µM (inactive) | > 100 µM (inactive) | > 100 µM (inactive) | > 100 µM (inactive) | > 100 µM (inactive) | > 100 µM (inactive) | > 100 µM (inactive) | > 100 µM (inactive) | > 100 µM (inactive) | > 100 µM (inactive) | > 100 µM (inactive) | > 100 µM (inactive) | > 100 µM (inactive) |
| CN(C)CCOc1ccc2c(c1)C/C(=C/c1ncc([N+](=O)[O-])n1C)C2=O | 1.17 µM (inactive) | 1.36 µM (inactive) | 2.64 µM (inactive) |  | 2.1 µM (inactive) | 1.35 µM (inactive) | 0.233 µM (active) | 1.21 µM (inactive) | 0.508 µM (active) | 1.43 µM (inactive) | 1.37 µM (inactive) | 1.17 µM (inactive) | 3.97 µM (inactive) | 1.64 µM (inactive) | 2.58 µM (inactive) | 1.6 µM (inactive) | 3.51 µM (inactive) | 1.83 µM (inactive) | 12.9 µM (inactive) | 0.242 µM (active) |
| N#Cc1c(O)c(C=O)c(=O)n2c1[nH]c1ccccc12 | > 100 µM (inactive) | > 100 µM (inactive) | > 100 µM (inactive) |  | > 100 µM (inactive) | > 100 µM (inactive) | > 100 µM (inactive) | > 100 µM (inactive) | > 100 µM (inactive) | > 100 µM (inactive) | > 100 µM (inactive) | > 100 µM (inactive) | > 100 µM (inactive) | > 100 µM (inactive) | > 100 µM (inactive) | > 100 µM (inactive) | > 100 µM (inactive) | > 100 µM (inactive) | > 100 µM (inactive) | 61.4 µM (inactive) |
| O=C1CCCC[C@H]1C(O)CC1CC(=O)N(c2ccccc2)C(=O)C1 (some centres undefined) | > 100 µM (inactive) | > 100 µM (inactive) | > 100 µM (inactive) |  | > 100 µM (inactive) | > 100 µM (inactive) | > 100 µM (inactive) | > 100 µM (inactive) | > 100 µM (inactive) | > 100 µM (inactive) | > 100 µM (inactive) | > 100 µM (inactive) | > 100 µM (inactive) | > 100 µM (inactive) | > 100 µM (inactive) | > 100 µM (inactive) | > 100 µM (inactive) | > 100 µM (inactive) | > 100 µM (inactive) | > 100 µM (inactive) |
| O=C(NO)c1ccc([N+](=O)[O-])cc1 | 64.4 µM (inactive) |  | 61 µM (inactive) | 30.7 µM (inactive) | 29.3 µM (inactive) | 48 µM (inactive) | 49.9 µM (inactive) | 25.8 µM (inactive) | 50.2 µM (inactive) | 25.2 µM (inactive) | 27.2 µM (inactive) | 18.3 µM (inactive) | 24.5 µM (inactive) | 70.3 µM (inactive) | 94.2 µM (inactive) | 50.8 µM (inactive) | 43 µM (inactive) |  |  |  |
